Assay results: patent US12285421B2, “Uses of a 5-HT4 receptor agonist” (SUVEN LIFE SCIENCES LIMITED, priority 2018, dated 2025)

Assays:
Male Wistar rats [1] = test: Object recognition task (NORT), MK-801 induced cognitive impairment; conditions: 0.3 and 1 mg/kg, p.o., FIG. 3
Description: During the familiarization phase, (T1), the rats were placed individually in the arena for 3 minutes, in which two identical objects (a1 and a2) were positioned 10 cm from the wall. Ninety minutes after T1, choice phase was performed. Rats were placed in the same arena as they were placed in T1 trial. During the choice phase (T2) rats were allowed to explore the arena for 3 minutes in presence of a copy of familiar object (a3) and one novel object (b).

Male Wistar rats [2] = test: Dominant Submissive Model (DSM) for depression; format: in vivo, rat; conditions: 3 mg/kg, p.o., submissive rats treated, significance in 5th week (p<0.05), FIG. 4
Description: A total of 220 male Wistar rats (110 pairs) of ˜150-200 g weight were selected. The animals were randomized on the basis of body weight and matched for body weight, pair wise. The pairs were habituated to the testing apparatus and milk for a period of 5 min per day for 5 days (first week). The animals were housed such that these pairs met only during the trial time. Each pair was given equal access to milk containing 9% sucrose in a beaker (10 mL), which was placed in an opening on the floor at the midpoint of the tunnel. During the second week, time spent in drinking the milk by a pair of rats was recorded and scored for a period of 5 min. Once the 5 min period was over, the rat pair was returned to their respective home cages.
Pairs, which met the above criteria were selected and randomized based on the dominance levels. Both the dominant and submissive animals of the control group were treated with vehicle (sterile water, 4 mL/kg, p.o.). […] During the test period (three weeks), time spent in drinking the milk was recorded for each animal of a pair for a period of 5 min. […] Dominance level (the average of difference in daily drinking score between the dominant and submissive partners during the testing period) was analyzed using repeated measure one way ANOVA followed by Tukey's test against its dominance level during 2nd week (FIG. 4).

serotonin = test: In vivo brain microdialysis, serotonin modulation in ventral hippocampus; conditions: Compound-1 3 mg/kg, p.o. alone, rat ventral hippocampus
Description: Incorrect probe placement was considered as criteria to reject the data from animal.

[3] = system: ovariectomized female Wistar rats; test: Object recognition task, in vivo model for dementia due to menopause; design: species or system rat; conditions: ~12 months after surgery, dosed 60 min prior to trial-1, FIG. 1
Description: Bilateral ovariectomy surgery was carried out in 7-8 weeks old female rats. Briefly, animals were anesthetized using Avertin (2,2,2-tri bromo ethanol) at 150 mg/kg, i.p. and were lay down on the surgery table. A midline incision was given on the dorsal region below the rib cage and 1 cm lateral to the either side of midline, a small incision was given on fascia to locate the adipose fat supporting the ovaries. By slowly pulling out the fat tissue, the ovary was identified and excised following the uterine horn ligation with silk sutures. Fascia was also covered with sutures and the similar procedure was repeated on the other side. Superficial skin layers were sutured and gentamicin (15 mg/kg, s.c.) was given as antibiotic and meloxicam (1 mg/kg, i.m.) as analgesic with povidone iodine applied on superficial skin layers at last. Episodic memory which is a memory of autobiographical events contextual in relation to time, place etc. was assessed ˜12 months after the surgery using object recognition task. On experiment day 1, rats were transferred to experimental room for acclimatization. On experiment day 2, all groups of animals were habituated to their respective test arenas for a period of 30 min prior to trial-1. […] Discriminative index (b−a3/b+a3) was calculated and compared among the groups.

**Q.** What does the source list for `COCCCN1CCC(c2nnc(-c3nn(C(C)C)c4ccccc34)o2)CC1.O=C(O)C(=O)O` [Compound-1, Isopropyl-3-{5-[1-(3-methoxypropyl)piperidin-4-yl]-[1,3,4]oxadiazol-2-yl}-1H-indazole oxalate]?
**A.** MK-801 induced memory deficit (Male Wistar rats [1]): reversed; dominance levels (Male Wistar rats [2]): decreased; increase in hippocampal serotonin levels above pre-dose levels (serotonin): 22%; object recognition memory deficits [3]: reversed
